The values below are quoted from earlier work in US6391332B1, “Therapeutic micronutrient composition for severe trauma, burns and critical illness” (Baxter International, Inc., priority 2000, dated 2002).

For series [1] the following is noted: doses exceeding 40 grams a day.
Series [2] relates to burn patients. The note with it: 2-10 grams given during burn resuscitation.
In series [3] the test system is critically ill patients. The note with it: glutamine supplementation, clinical trials.

On to `N=C(N)NCCC[C@H](N)C(=O)O` [arginine, L-arginine], for which the toxicity result in series [1] is reported as “non-toxic”.

Take `O=C1O[C@H]([C@@H](O)CO)C(O)=C1O` [ascorbic acid]: in series [2], the “vascular permeability and fluid requirements” value is given as “significantly decrease”. On to `NC(=O)CC[C@H](N)C(=O)O` [glutamine, L-glutamine], for which the infection rate entry in series [3] was “decreased infection rate”.
